B1: D-type amino acid dehydrogenase derived from T. lipolytica (Thermosyntropha lipolytica DSM 11003) (protein)
chain: MGEKIRVAIVGYGNIGRYALDAIKAAPDMELAGVVRRSSSLGDKPAELADVPVVGSIKELTGVKVALLCTPTRSVPEYAREILALGINTVDSYDIHGQLADLRLELDKVAKEHNAVAVISAGWDPGTDSMVRCMFEFMAPKGITYTNFGPGMSMGHSVAVKAVKGVKNALSMTIPLGTGVHRRMVYVELEPGADFAQVEKAVKTDPYFVKDETHVIQVEDVDALIDMGHGVLMERKGVSGGTHNQLLSFSMRINNPALTAQIMVASARASVKQKPGAYTMIQIPIIDYMYGDPDEIIRQLV
B2: D-type amino acid dehydrogenase: D-type amino acid dehydrogenase derived from Thermosyntropha lipolytica, amino acid sequence SEQ ID NO: 2, hexamer (protein, listed as Thermosyntropha lipolytica)
chain: B1 chain
modifications: hexamer

Columns and labels:
[1] = target: D-type amino acid dehydrogenase derived from T. lipolytica (Thermosyntropha lipolytica, UniProt A0A1M5M5H3); test: Coenzyme dependence by activity-staining after disc gel electrophoresis; assay type: biochemical; settings: 10 mM meso-diaminopimelic acid, 1.25 mM coenzyme, pH 8.0, 50° C., 30 minutes
Procedure: The coenzyme dependence of the enzyme was evaluated by an activity-staining method due to an enzymatic catalytic reaction. More specifically, an appropriate amount of enzyme solution was subjected to disc gel electrophoresis. […] A reaction formula is indicated below. In the following reaction formula, the D-type amino acid dehydrogenase is referred to as “meso-DAPDH”.

[2] = system: Five-mutation enzyme (five-mutation D-type amino acid dehydrogenase, SEQ ID NO: 14); test: D-amino acid synthesis activity (amination of 2-oxo acid), five-mutation enzyme; assay type: biochemical, Thermosyntropha lipolytica; settings: 5 mM 2-oxoacid, 200 mM ammonium chloride, glycine buffer pH 9.5, 50° C.; for D-amino acid synthesis activity (specific activity), Five-mutation enzyme, NADH: NADH 0.1 mM; for D-amino acid synthesis activity (specific activity), Five-mutation enzyme, NADPH: NADPH 0.1 mM
Procedure: The PCR reaction solution was prepared so as to contain 0.3 μM of each of the following primers and 50 ng of the above-described template DNA.
After PCR, 2 μL of DpnI was added to the reaction solution and treated at 37° C. for 1 hour, and E. coli DH5α was transformed using the solution after treatment. Transformed cells were coated on an LB agar plate containing antibiotic ampicillin (final concentration 100 mg/L) and cultured at 37° C. for 16 hours. The generated colonies were harvested and cultured in LB liquid medium containing ampicillin overnight. The strains were collected from the culture solution by centrifugation, and five-mutation D-type amino acid dehydrogenase/pET100 was collected according to the manufacturer's protocol using AccuPrep Plasmid Mini Extraction Kit (BIONEER).
(§1) The activity of the enzyme was measured by determining a decrease in absorbance at wavelength of 340 nm of NADPH or NADH […] by the catalytic reaction of the enzyme and determining the enzymatic activity by the determined decrease in absorbance as an indicator. […] The absorbance was measured by an ultraviolet-visible spectrophotometer UV-1800 (available from SHIMADZU). […]

[3] = system: Six-mutation enzyme (Asp94Ser, Met154Leu, Val158Gly, Thr173Ile, Arg183Met, His229Asn; SEQ ID NO: 8); test: D-amino acid synthesis activity (amination of 2-oxo acid), six-mutation enzyme; assay type: biochemical, Thermosyntropha lipolytica; settings: 5 mM 2-oxoacid, 200 mM ammonium chloride, glycine buffer pH 9.5, 50° C.; for D-amino acid synthesis activity (specific activity), Six-mutation enzyme, NADH: NADH 0.1 mM; for D-amino acid synthesis activity (specific activity), Six-mutation enzyme, NADPH: NADPH 0.1 mM
Procedure: Using this as a template, the gene of the enzyme was amplified by PCR using “PrimeSTAR Max DNA Polymerase” available from Takara Bio Inc. PCR was performed according to the manufacturer's instructions. The PCR reaction solution was prepared so as to contain 0.3 μM of each of the following primers and 50 ng of the above-described template DNA.
According to the manufacturer's protocol, the purified amplification product was incorporated into a pET100 vector (I available from Invitrogen) of a plasmid for protein expression to construct a six-mutation D-type amino acid dehydrogenase/pET100. The expression vector was constructed so as to incorporate a six-mutation D-type amino acid dehydrogenase gene derived from T. lipolytica downstream of the T7 promoter and […], and upstream of the T7 terminator.
as §1

[4] = system: Wild type D-type amino acid dehydrogenase derived from T. lipolytica; test: D-amino acid synthesis activity (amination of 2-oxo acid), wild type enzyme; assay type: biochemical, Thermosyntropha lipolytica; settings: 5 mM 2-oxoacid, 200 mM ammonium chloride, glycine buffer pH 9.5, 50° C.; for D-amino acid synthesis activity (specific activity), Wild type, NADH: NADH 0.1 mM; for D-amino acid synthesis activity (specific activity), Wild type, NADPH: NADPH 0.1 mM
Procedure: as §1

[5] = substrate: NC(=O)c1ccc[n+]([C@@H]2O[C@H](COP(=O)([O-])OP(=O)(O)OC[C@H]3O[C@@H](n4cnc5c(N)ncnc54)[C@H](O)[C@@H]3O)[C@@H](O)[C@H]2O)c1; test: purified protein, by the assay type; assay type: biochemical, Thermosyntropha lipolytica; settings: other: meso-diaminopimelic acid as substrate, 50° C., values for meso-diaminopimelic acid determined using NADP^+ as the coenzyme
Procedure: A turnover number (kcat) as a reaction rate parameter, a Michaelis constant (Km) value, and catalytic efficiency (kcat/Km) were determined with Igor Pro ver. 3.14 (available from WaveMetrics) based on Michaelis-Menten equation after the initial velocities were plotted against different substrates and coenzyme concentrations.

[6] = substrate: N[C@H](CCC[C@H](N)C(=O)O)C(=O)O; test: purified protein, by the assay type; settings: other: meso-diaminopimelic acid as substrate, 50° C., values for meso-diaminopimelic acid determined using NADP^+ as the coenzyme
[7] = Activity-staining with D-alanine or L-alanine as substrate; assay type: biochemical, Thermosyntropha lipolytica; settings: 10 mM D-alanine or L-alanine, 1.25 mM NADP^+, pH 8.0, 50° C., 30 minutes
Procedure: The activity was evaluated for the D-type amino acid dehydrogenase obtained in Example 2 above. The activity of the enzyme was evaluated by an activity-staining method due to a catalytic reaction of the enzyme. More specifically, an appropriate amount of enzyme solution was subjected to disc gel electrophoresis. […] The 2-(4-iodophenyl)-3-(4-nitrophenyl)-5-phenyl-2H-tetrazolium chloride in the reaction solution is reduced to form a […] formazan. A reaction formula is indicated below. In the following reaction formula, the D-type amino acid dehydrogenase is referred to as “meso-DAPDH”.

[8] = Thermal stability of the enzyme (residual activity after heat treatment); assay type: physicochemical, Thermosyntropha lipolytica; settings: 70° C., 30 minutes, 10 mM phosphate buffer pH 7.2; activity at 50° C. as 100%
Procedure: The D-type amino acid dehydrogenase purified in Example 2 was heat-treated for 30 minutes under various temperature conditions (50, 55, 60, 65, or 70° C.) in 10 mM phosphate buffer solution (pH 7.2), and the residual activity after standing for 5 minutes in ice was confirmed. […] The residual activity after treatment at other temperatures was calculated as a relative activity, with the activity at 50° C. as 100%.

[9] = Optimum pH in catalytic reaction (deamination of meso-diaminopimelic acid); assay type: biochemical, Thermosyntropha lipolytica; settings: NADP^+, 50° C.
Procedure: The optimum pH was evaluated for the D-type amino acid dehydrogenase obtained in Example 2. The activity of the enzyme was measured by determining an increase in absorbance at wavelength of 340 nm of NADPH produced by the enzymatic catalytic reaction.
The absorbance was measured by an ultraviolet-visible spectrophotometer UV-1800 (available from SHIMADZU). The specific activity of the enzyme was calculated from the concentration of the enzyme used and enzyme dilution rate using the obtained absorbance change and the following equation.

[10] = Optimum temperature in catalytic reaction; assay type: biochemical, Thermosyntropha lipolytica; settings: meso-diaminopimelic acid as substrate, NADP^+
Excerpt: The measurement results are illustrated in FIG. 6.

[11] = pH stability of the enzyme (residual activity after treatment in buffers); assay type: physicochemical, Thermosyntropha lipolytica; settings: pH 5.0 to 9.5, 50° C. for 30 minutes, 100 mM buffer; activity at pH 9.0 as 100%
Procedure: The D-type amino acid dehydrogenase purified in Example 2 was heat-treated at 50° C. for 30 minutes in each 100 mM buffer solution (pH 1.5, 2.0, 2.5, 3.0, 3.5, 4.0, 4.5, 5.0, 5.5, 6.0, 6.5, 7.0, 7.5, 8.0, 8.5, 9.0, 9.5, 10.0, 10.5, 11.0, or 11.3), and the residual activity after standing for 5 minutes in ice was confirmed. […] The activity in the treatment at pH 9.0 was defined as 100%, and the residual activity after the treatment at other pH was calculated as the relative activity.

Molecule	coenzyme utilization (activity-staining) [1]	D-amino acid synthesis activity (specific activity), Five-mutation enzyme, NADH [2] [µmol/min/mg]	D-amino acid synthesis activity (specific activity), Five-mutation enzyme, NADPH [2] [µmol/min/mg]	D-amino acid synthesis activity (specific activity), Six-mutation enzyme, NADH [3] [µmol/min/mg]	D-amino acid synthesis activity (specific activity), Six-mutation enzyme, NADPH [3] [µmol/min/mg]	D-amino acid synthesis activity (specific activity), Wild type, NADH [4] [µmol/min/mg]	D-amino acid synthesis activity (specific activity), Wild type, NADPH [4] [µmol/min/mg]	further results
NC(=O)c1ccc[n+]([C@@H]2O[C@H](COP(=O)([O-])OP(=O)(O)OC[C@H]3O[C@@H](n4cnc5c(N)ncnc54)[C@H](O)[C@@H]3O)[C@@H](O)[C@H]2O)c1 [NAD^+]	utilized							
NADP^+	utilized							
CC(C)C(=O)C(=O)O [2-oxo-3-methylbutanoic acid/D-valine, 2-oxo-3-methylbutanoic acid]		0.18 ± 0.00078	0.11 ± 0.0034	0.18 ± 0.00089	0.058 ± 0.0027	0.43 ± 0.0026	0.33 ± 0.0094	
CC(=O)C(=O)O [2-oxopropanoic acid/D-alanine, 2-oxopropanoic acid]		0.0077 ± 0.0015	0.071 ± 0.00074	0.0053 ± 0.0036	0.044 ± 0.0034	0.49 ± 0.016	5.3 ± 0.038	
B1								Km [5]: 14.8 mM; kcat [5]: 77.5 s⁻¹; kcat/Km [5]: 5220 M⁻¹ s⁻¹; Km [6]: 5.68 mM; kcat [6]: 73.7 s⁻¹; kcat/Km [6]: 13000 M⁻¹ s⁻¹
B2								stereoselectivity for substrate (activity-staining) [7]: selectively acts on the D-amino acid; residual activity after heat treatment [8]: about 74%; optimum pH for activity [9]: 10.5; optimum temperature for activity [10]: about 55 °C; residual activity after pH treatment [11]: ≥ 90%

Source: US11098288B2, “D-type amino acid dehydrogenase” (Kureha Corporation, priority 2017, dated 2021)
